Assay results as given in patent US20100137449A1, “SUBSTITUTED 1,3-CYCLOPENTADIONE MULTI-TARGET PROTEIN KINASE MODULATORS OF CANCER, ANGIOGENESIS AND THE INFLAMMATORY PATHWAYS ASSOCIATED THEREWITH” (METAPROTEOMICS, LLC, priority 2007, published 2010).

Tests used:
Assay in all cases: KinaseProfiler Assay
EGFR(L861Q)(h) = EGFR(L861Q)(h) (Homo sapiens, UniProt P00533, L861Q)
PhKγ2(h) = target: T1, PhKγ2(h) (Homo sapiens, UniProt P15735)
T1 sequence (P15735 1-406): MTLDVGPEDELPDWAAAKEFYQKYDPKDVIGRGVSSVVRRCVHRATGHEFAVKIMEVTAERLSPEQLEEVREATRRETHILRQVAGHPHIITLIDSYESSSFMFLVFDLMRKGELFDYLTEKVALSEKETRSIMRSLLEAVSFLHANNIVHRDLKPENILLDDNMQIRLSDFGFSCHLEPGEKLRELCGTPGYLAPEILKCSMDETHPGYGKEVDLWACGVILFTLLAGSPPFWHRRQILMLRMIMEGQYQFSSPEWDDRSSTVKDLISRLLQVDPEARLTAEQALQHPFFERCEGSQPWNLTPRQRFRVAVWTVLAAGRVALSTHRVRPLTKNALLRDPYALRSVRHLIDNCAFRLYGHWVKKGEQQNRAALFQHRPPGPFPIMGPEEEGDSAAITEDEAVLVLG

Aurora-A(h) = target: T2, Aurora-A(h) (Homo sapiens, UniProt O14965)
T2 sequence (O14965 1-403): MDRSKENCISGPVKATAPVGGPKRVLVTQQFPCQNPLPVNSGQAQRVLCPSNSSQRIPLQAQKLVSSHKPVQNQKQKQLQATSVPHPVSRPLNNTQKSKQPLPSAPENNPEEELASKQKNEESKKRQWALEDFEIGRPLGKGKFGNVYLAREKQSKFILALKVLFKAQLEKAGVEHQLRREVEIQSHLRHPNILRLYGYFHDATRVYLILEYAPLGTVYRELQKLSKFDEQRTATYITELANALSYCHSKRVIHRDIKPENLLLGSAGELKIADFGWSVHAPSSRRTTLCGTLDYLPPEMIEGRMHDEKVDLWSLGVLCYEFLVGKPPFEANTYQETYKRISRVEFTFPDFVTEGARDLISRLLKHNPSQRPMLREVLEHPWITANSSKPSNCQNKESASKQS

PAK4(h) = PAK4(h) (Homo sapiens, UniProt O96013)
PAK4(h), sequence (O96013 whole entry): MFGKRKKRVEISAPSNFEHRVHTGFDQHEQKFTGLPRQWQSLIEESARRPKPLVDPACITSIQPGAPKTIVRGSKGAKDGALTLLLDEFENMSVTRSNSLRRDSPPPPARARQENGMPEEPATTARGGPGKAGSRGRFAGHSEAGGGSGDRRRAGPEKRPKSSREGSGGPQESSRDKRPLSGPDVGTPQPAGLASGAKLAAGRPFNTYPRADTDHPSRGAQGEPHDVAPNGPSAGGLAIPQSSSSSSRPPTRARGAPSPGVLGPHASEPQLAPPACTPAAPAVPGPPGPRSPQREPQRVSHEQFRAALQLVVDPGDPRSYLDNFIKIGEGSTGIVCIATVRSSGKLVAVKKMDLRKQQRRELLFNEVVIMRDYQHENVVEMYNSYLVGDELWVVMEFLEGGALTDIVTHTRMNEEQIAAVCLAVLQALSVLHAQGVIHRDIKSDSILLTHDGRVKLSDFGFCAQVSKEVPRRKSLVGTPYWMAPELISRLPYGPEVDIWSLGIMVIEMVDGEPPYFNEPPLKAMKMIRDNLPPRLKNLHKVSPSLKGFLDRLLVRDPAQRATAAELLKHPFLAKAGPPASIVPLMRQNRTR

PASK(h) = PASK(h) (Homo sapiens, UniProt Q96RG2)
PASK(h), sequence (Q96RG2 whole entry): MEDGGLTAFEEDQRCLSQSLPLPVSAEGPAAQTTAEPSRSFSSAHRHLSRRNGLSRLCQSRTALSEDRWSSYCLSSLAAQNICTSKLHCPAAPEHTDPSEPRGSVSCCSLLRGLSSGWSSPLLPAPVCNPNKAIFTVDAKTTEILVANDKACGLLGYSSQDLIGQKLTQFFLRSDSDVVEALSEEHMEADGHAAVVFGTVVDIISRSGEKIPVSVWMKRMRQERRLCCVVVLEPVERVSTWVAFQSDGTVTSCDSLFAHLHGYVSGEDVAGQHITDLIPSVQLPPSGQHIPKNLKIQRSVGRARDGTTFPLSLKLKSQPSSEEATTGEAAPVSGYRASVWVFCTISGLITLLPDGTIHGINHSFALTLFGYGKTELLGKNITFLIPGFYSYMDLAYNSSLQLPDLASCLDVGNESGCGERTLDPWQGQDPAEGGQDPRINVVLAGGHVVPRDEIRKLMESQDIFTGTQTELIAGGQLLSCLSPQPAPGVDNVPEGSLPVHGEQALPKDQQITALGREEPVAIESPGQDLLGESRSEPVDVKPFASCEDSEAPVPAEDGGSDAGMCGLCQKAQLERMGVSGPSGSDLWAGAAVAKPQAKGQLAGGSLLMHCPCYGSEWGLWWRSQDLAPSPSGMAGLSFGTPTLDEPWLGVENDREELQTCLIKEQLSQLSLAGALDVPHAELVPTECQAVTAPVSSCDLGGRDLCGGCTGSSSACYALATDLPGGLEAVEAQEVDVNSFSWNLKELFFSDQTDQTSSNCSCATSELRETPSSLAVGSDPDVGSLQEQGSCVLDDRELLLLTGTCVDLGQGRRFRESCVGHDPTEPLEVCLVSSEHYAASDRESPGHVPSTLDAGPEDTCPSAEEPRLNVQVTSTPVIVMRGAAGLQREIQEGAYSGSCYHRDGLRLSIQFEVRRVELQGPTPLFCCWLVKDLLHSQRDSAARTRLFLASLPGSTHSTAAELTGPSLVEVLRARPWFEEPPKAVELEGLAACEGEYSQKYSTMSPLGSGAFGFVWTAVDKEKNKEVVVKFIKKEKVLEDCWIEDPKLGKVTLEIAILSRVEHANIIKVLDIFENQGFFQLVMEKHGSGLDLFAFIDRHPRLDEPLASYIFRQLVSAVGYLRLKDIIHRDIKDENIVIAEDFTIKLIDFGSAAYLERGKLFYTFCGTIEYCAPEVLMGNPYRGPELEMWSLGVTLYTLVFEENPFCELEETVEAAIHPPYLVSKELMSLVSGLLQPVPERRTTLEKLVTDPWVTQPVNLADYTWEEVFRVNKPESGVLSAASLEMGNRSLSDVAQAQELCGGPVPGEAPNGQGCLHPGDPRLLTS

DCAMKL2(h) = target: T3, DCAMKL2(h) (Homo sapiens, UniProt Q8N568)
T3 sequence (Q8N568 1-766): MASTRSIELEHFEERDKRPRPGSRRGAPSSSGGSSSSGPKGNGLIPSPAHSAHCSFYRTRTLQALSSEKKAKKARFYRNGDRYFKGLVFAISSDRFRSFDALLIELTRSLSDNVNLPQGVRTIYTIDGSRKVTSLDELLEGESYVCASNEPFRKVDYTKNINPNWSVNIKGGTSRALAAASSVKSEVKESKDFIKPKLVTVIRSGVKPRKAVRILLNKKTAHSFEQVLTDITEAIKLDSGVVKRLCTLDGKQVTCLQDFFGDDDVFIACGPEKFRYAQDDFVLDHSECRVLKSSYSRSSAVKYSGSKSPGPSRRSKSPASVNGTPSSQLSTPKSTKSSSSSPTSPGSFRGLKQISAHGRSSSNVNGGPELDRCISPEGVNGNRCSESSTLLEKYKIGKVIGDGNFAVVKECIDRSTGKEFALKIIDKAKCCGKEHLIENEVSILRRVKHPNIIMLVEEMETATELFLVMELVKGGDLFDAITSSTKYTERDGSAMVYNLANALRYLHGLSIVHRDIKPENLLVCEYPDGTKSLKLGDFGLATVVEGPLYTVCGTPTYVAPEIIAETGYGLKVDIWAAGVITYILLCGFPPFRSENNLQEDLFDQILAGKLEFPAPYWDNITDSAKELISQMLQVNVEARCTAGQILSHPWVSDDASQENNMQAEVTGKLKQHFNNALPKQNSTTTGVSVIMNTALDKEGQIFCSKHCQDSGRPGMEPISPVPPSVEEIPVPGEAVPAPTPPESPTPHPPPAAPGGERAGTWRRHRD

Flt4(h) = Flt4(h) (Homo sapiens, UniProt P35916)
Flt4(h), sequence (P35916 25-1363): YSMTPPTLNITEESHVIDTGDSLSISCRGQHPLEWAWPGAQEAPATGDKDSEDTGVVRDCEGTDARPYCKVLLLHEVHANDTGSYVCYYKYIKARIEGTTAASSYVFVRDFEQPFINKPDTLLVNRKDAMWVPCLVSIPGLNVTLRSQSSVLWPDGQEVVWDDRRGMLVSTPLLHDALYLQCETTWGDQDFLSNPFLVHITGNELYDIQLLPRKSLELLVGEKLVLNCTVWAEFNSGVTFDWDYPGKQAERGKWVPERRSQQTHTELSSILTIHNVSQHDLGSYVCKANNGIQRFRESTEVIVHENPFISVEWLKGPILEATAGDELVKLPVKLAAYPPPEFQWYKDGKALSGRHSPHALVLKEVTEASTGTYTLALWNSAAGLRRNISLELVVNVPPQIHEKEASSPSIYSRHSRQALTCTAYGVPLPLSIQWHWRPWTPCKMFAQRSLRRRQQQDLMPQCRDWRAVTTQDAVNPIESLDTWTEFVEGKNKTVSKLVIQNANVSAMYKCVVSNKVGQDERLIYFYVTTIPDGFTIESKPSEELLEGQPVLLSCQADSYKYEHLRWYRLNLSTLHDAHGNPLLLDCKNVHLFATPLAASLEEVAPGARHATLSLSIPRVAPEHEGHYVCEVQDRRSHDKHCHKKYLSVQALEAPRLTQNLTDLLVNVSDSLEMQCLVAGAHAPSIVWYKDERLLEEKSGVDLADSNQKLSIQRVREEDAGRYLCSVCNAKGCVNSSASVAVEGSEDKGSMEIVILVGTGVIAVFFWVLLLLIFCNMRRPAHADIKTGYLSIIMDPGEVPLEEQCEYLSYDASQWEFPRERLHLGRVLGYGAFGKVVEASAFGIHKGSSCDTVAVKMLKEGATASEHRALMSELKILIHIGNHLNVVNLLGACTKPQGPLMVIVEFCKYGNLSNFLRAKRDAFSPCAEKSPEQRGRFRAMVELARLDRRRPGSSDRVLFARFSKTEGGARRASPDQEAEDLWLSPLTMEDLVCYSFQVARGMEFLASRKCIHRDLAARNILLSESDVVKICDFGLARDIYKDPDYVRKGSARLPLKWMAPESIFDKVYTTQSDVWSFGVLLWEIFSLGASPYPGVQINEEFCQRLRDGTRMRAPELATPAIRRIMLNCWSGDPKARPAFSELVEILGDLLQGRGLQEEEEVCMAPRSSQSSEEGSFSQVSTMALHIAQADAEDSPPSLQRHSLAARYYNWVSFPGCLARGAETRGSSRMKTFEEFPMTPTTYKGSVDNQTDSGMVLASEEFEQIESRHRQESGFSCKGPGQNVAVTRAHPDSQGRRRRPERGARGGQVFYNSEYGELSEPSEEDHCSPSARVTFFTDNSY

PKA(h) = PKA(h) (Homo sapiens, UniProt P17612)
Fes(h) = Fes(h) (Homo sapiens, UniProt P07332)
Fes(h), sequence (P07332 whole entry): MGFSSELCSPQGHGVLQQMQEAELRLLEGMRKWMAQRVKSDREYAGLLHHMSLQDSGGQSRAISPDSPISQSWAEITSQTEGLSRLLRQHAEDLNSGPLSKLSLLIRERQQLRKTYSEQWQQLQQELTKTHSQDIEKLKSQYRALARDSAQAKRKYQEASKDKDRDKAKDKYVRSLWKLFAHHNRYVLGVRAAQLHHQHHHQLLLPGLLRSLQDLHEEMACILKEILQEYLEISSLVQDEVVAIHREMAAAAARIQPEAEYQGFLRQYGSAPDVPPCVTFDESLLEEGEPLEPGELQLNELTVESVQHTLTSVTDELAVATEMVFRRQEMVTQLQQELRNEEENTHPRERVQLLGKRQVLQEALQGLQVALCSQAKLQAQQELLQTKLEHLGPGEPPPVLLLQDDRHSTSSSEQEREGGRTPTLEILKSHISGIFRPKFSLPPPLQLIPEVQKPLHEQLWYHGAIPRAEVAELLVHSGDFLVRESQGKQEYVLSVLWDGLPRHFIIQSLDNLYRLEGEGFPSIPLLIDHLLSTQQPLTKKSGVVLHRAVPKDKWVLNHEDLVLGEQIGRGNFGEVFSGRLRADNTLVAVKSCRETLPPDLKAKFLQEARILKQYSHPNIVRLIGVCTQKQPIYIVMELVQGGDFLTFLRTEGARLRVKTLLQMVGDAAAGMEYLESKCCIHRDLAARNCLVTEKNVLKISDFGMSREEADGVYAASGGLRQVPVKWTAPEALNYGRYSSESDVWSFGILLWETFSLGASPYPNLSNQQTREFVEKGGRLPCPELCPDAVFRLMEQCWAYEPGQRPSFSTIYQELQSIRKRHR

EphA2(h) = EphA2(h) (Homo sapiens, UniProt P29317)
EphA2(h), sequence (P29317 24-976): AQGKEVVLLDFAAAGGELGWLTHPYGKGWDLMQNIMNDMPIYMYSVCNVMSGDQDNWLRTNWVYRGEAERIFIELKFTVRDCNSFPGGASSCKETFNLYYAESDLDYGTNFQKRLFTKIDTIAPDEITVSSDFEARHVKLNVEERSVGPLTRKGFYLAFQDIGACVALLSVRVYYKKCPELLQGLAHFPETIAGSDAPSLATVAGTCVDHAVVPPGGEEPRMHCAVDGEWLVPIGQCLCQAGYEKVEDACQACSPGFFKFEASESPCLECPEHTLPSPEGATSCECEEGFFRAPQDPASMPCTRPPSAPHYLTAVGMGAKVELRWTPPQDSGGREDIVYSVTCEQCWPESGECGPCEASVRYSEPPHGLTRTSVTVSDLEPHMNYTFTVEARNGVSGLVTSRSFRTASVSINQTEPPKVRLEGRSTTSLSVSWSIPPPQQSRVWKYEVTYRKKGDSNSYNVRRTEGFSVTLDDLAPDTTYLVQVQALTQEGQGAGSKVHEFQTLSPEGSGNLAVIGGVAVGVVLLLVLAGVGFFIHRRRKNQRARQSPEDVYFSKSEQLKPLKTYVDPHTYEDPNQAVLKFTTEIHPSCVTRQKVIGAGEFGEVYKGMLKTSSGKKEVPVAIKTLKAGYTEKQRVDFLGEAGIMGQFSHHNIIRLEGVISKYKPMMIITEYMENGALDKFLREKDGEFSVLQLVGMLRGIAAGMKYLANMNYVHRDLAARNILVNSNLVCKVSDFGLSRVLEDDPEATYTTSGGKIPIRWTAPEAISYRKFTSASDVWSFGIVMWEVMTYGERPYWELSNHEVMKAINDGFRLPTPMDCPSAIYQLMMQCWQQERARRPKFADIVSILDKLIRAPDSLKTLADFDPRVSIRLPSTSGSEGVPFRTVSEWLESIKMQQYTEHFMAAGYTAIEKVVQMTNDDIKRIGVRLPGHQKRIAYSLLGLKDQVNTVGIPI

Rsk1(h) = Rsk1(h) (Homo sapiens, UniProt Q15418)

CC(C)CCC(=O)[C@]1(O)C(O)=C(C(=O)C(C)C)C(=O)[C@H]1CCC(C)C [TH2, tetrahydroiso-cohumulone]
kinase inhibition (EGFR(L861Q)(h); 1 μg/ml): 98% of control | kinase inhibition (EGFR(L861Q)(h); 5 μg/ml): 91% of control | kinase inhibition (EGFR(L861Q)(h); 25 μg/ml): 94% of control | kinase inhibition (EGFR(L861Q)(h); 50 μg/ml): 99% of control | kinase inhibition (EGFR(L861Q)(h); 100 μg/ml): 93% of control | kinase inhibition (PhKγ2(h); 1 μg/ml): 112% of control | kinase inhibition (PhKγ2(h); 5 μg/ml): 116% of control | kinase inhibition (PhKγ2(h); 25 μg/ml): 114% of control | kinase inhibition (PhKγ2(h); 50 μg/ml): 88% of control | kinase inhibition (PhKγ2(h); 100 μg/ml): 63% of control | kinase inhibition (Aurora-A(h); 1 μg/ml): 65% of control | kinase inhibition (Aurora-A(h); 5 μg/ml): 24% of control | kinase inhibition (Aurora-A(h); 25 μg/ml): 71% of control | kinase inhibition (Aurora-A(h); 50 μg/ml): 57% of control | kinase inhibition (Aurora-A(h); 100 μg/ml): 54% of control | kinase inhibition (PAK4(h); 1 μg/ml): 105% of control | kinase inhibition (PAK4(h); 5 μg/ml): 84% of control | kinase inhibition (PAK4(h); 25 μg/ml): 98% of control | kinase inhibition (PAK4(h); 50 μg/ml): 110% of control | kinase inhibition (PAK4(h); 100 μg/ml): 99% of control | kinase inhibition (PASK(h); 1 μg/ml): 71% of control | kinase inhibition (PASK(h); 5 μg/ml): 76% of control | kinase inhibition (PASK(h); 25 μg/ml): 78% of control | kinase inhibition (PASK(h); 50 μg/ml): 80% of control | kinase inhibition (PASK(h); 100 μg/ml): 71% of control | kinase inhibition (DCAMKL2(h); 1 μg/ml): 96% of control | kinase inhibition (DCAMKL2(h); 5 μg/ml): 100% of control | kinase inhibition (DCAMKL2(h); 25 μg/ml): 110% of control | kinase inhibition (DCAMKL2(h); 50 μg/ml): 96% of control | kinase inhibition (DCAMKL2(h); 100 μg/ml): 86% of control | kinase inhibition (Flt4(h); 1 μg/ml): 117% of control | kinase inhibition (Flt4(h); 5 μg/ml): 113% of control | kinase inhibition (Flt4(h); 25 μg/ml): 88% of control | kinase inhibition (Flt4(h); 50 μg/ml): 80% of control | kinase inhibition (Flt4(h); 100 μg/ml): 55% of control | kinase inhibition (PKA(h); 1 μg/ml): 131% of control | kinase inhibition (PKA(h); 5 μg/ml): 124% of control | kinase inhibition (PKA(h); 25 μg/ml): 93% of control | kinase inhibition (PKA(h); 50 μg/ml): 94% of control | kinase inhibition (PKA(h); 100 μg/ml): 86% of control | kinase inhibition (Fes(h); 1 μg/ml): 140% of control | kinase inhibition (Fes(h); 5 μg/ml): 120% of control | kinase inhibition (Fes(h); 25 μg/ml): 105% of control | kinase inhibition (Fes(h); 50 μg/ml): 99% of control | kinase inhibition (Fes(h); 100 μg/ml): 86% of control | kinase inhibition (EphA2(h); 1 μg/ml): 102% of control | kinase inhibition (EphA2(h); 5 μg/ml): 104% of control | kinase inhibition (EphA2(h); 25 μg/ml): 105% of control | kinase inhibition (EphA2(h); 50 μg/ml): 99% of control | kinase inhibition (EphA2(h); 100 μg/ml): 92% of control | kinase inhibition (Rsk1(h); 1 μg/ml): 97% of control | kinase inhibition (Rsk1(h); 5 μg/ml): 95% of control | kinase inhibition (Rsk1(h); 25 μg/ml): 65% of control | kinase inhibition (Rsk1(h); 50 μg/ml): 53% of control | kinase inhibition (Rsk1(h); 100 μg/ml): 32% of control
